Assay results as given in ChEMBL document CHEMBL3046635, “Synthesis and Herbicidal Activity of New Pyrazole-4-carboxamide Derivatives” (J Pestic Sci, 2004).
Active and inactive are the calls of the source.

What was measured:
[1] = tested on: Rotala indica; test: Post-emergence herbicidal activity against Rotala indica assessed as bleaching of stem/leaf parts; type: functional, organism-based; further: test concentration or dose not given here
[2] = tested on: Eleocharis acicularis; test: Post-emergence herbicidal activity against Eleocharis acicularis assessed as bleaching of stem/leaf parts; type: functional, organism-based; further: test concentration or dose not given here
[3] = tested on: Schoenoplectiella juncoides; test: Post-emergence herbicidal activity against Schoenoplectiella juncoides assessed as bleaching of stem/leaf parts; type: functional, organism-based; further: test concentration or dose not given here
[4] = tested on: Eleocharis acicularis; test: Pre-emergence herbicidal activity against Eleocharis acicularis assessed as bleaching of stem/leaf parts; type: functional, organism-based
[5] = tested on: Ammannia multiflora; test: Pre-emergence herbicidal activity against Ammannia multiflora assessed as bleaching of stem/leaf parts; type: functional, organism-based
[6] = tested on: Lindernia procumbens; test: Pre-emergence herbicidal activity against Lindernia procumbens assessed as bleaching of stem/leaf parts; type: functional, organism-based
[7] = tested on: Pontederia vaginalis; test: Pre-emergence herbicidal activity against Monochoria vaginalis at 2000 g a.i/ha measured after 14 days; type: functional, organism-based
[8] = tested on: Oryza sativa; test: Phytotoxicity against Oryza sativa cv. Koshihikari (rice) at 2000 g a.i/ha measured after 14 days; type: organism-based; settings: in vivo, 336 h
[9] = tested on: Rotala indica; test: Pre-emergence herbicidal activity against Rotala indica assessed as bleaching of stem/leaf parts; type: functional, organism-based
[10] = tested on: Eleocharis acicularis; test: Pre-emergence herbicidal activity against Eleocharis acicularis at 2000 g a.i/ha measured after 14 days; type: functional, organism-based
[11] = tested on: Cyperus difformis; test: Pre-emergence herbicidal activity against Cyperus difformis assessed as bleaching of stem/leaf parts; type: functional, organism-based
[12] = tested on: Echinochloa oryzicola; test: Pre-emergence herbicidal activity against Echinochloa oryzicola assessed as bleaching of stem/leaf parts; type: functional, organism-based
[13] = tested on: Echinochloa oryzicola; test: Post-emergence herbicidal activity against Echinochloa oryzicola assessed as bleaching of stem/leaf parts; type: functional, organism-based; further: test concentration or dose not given here
[14] = tested on: Cyperus difformis; test: Pre-emergence herbicidal activity against Cyperus difformis at 2000 g a.i/ha measured after 14 days; type: functional, organism-based
[15] = tested on: Schoenoplectiella juncoides; test: Pre-emergence herbicidal activity against Schoenoplectiella juncoides assessed as bleaching of stem/leaf parts; type: functional, organism-based
[16] = tested on: Cyperus difformis; test: Post-emergence herbicidal activity against Cyperus difformis assessed as bleaching of stem/leaf parts; type: functional, organism-based; further: test concentration or dose not given here
[17] = tested on: Pontederia vaginalis; test: Post-emergence herbicidal activity against Monochoria vaginalis assessed as bleaching of stem/leaf parts; type: functional, organism-based; further: test concentration or dose not given here
[18] = tested on: Ammannia multiflora; test: Pre-emergence herbicidal activity against Ammannia multiflora at 2000 g a.i/ha measured after 14 days; type: functional, organism-based
[19] = tested on: Echinochloa oryzicola; test: Pre-emergence herbicidal activity against Echinochloa oryzicola at 2000 g a.i/ha measured after 14 days; type: functional, organism-based
[20] = tested on: Schoenoplectiella juncoides; test: Pre-emergence herbicidal activity against Schoenoplectiella juncoides at 2000 g a.i/ha measured after 14 days; type: functional, organism-based
[21] = tested on: Lindernia procumbens; test: Post-emergence herbicidal activity against Lindernia procumbens assessed as bleaching of stem/leaf parts; type: functional, organism-based; further: test concentration or dose not given here
[22] = tested on: Elatine triandra; test: Pre-emergence herbicidal activity against Elatine triandra assessed as bleaching of stem/leaf parts; type: functional, organism-based
[23] = tested on: Ammannia multiflora; test: Post-emergence herbicidal activity against Ammannia multiflora assessed as bleaching of stem/leaf parts; type: functional, organism-based; further: test concentration or dose not given here
[24] = tested on: Elatine triandra; test: Post-emergence herbicidal activity against Elatine triandra assessed as bleaching of stem/leaf parts; type: functional, organism-based; further: test concentration or dose not given here
[25] = tested on: Elatine triandra; test: Pre-emergence herbicidal activity against Elatine triandra at 2000 g a.i/ha measured after 14 days; type: functional, organism-based
[26] = tested on: Pontederia vaginalis; test: Pre-emergence herbicidal activity against Monochoria vaginalis assessed as bleaching of stem/leaf parts; type: functional, organism-based
[27] = tested on: Rotala indica; test: Pre-emergence herbicidal activity against Rotala indica at 2000 g a.i/ha measured after 14 days; type: functional, organism-based
[28] = tested on: Lindernia procumbens; test: Pre-emergence herbicidal activity against Lindernia procumbens at 2000 g a.i/ha measured after 14 days; type: functional, organism-based

CCCN(CC)C(=O)c1cn(C)nc1OCc1cc(F)cc(F)c1
Activity [1]: Active | Activity [2]: Active | Activity [3]: Active | Activity [4]: Active | Activity [5]: Active | Activity [6]: Active | Activity [7]: Active | Activity [8]: Non-toxic | Activity [9]: Active | Activity [10]: inactive | Activity [11]: Active | Activity [12]: Active | Activity [13]: Active | Activity [14]: Active | Activity [15]: Active | Activity [16]: Active | Activity [17]: Active | Activity [18]: Active | Activity [19]: Active | Activity [20]: Active | Activity [21]: Active | Activity [22]: Active | Activity [23]: Active | Activity [24]: Active | Activity [25]: Active | Activity [26]: Active | Activity [27]: Active | Activity [28]: Active

CCCN(CC)C(=O)c1cn(C)nc1OC(C)c1cccc(Br)c1 (centres undefined)
Activity [1]: Active | Activity [2]: Active | Activity [3]: Active | Activity [4]: Active | Activity [5]: Active | Activity [6]: Active | Activity [7]: inactive | Activity [8]: Non-toxic | Activity [9]: Active | Activity [10]: inactive | Activity [11]: Active | Activity [12]: Active | Activity [13]: Active | Activity [14]: inactive | Activity [15]: Active | Activity [16]: Active | Activity [17]: Active | Activity [18]: inactive | Activity [19]: inactive | Activity [20]: inactive | Activity [21]: Active | Activity [22]: Active | Activity [23]: Active | Activity [24]: Active | Activity [25]: inactive | Activity [26]: Active | Activity [27]: inactive | Activity [28]: inactive

CCCN(CC)C(=O)c1cn(C)nc1OCc1ccc(C)cc1
Activity [1]: Active | Activity [2]: Active | Activity [3]: Active | Activity [4]: Active | Activity [5]: Active | Activity [6]: Active | Activity [7]: inactive | Activity [8]: Non-toxic | Activity [9]: Active | Activity [10]: inactive | Activity [11]: Active | Activity [12]: Active | Activity [13]: Active | Activity [14]: inactive | Activity [15]: Active | Activity [16]: Active | Activity [17]: Active | Activity [18]: inactive | Activity [19]: inactive | Activity [20]: inactive | Activity [21]: Active | Activity [22]: Active | Activity [23]: Active | Activity [24]: Active | Activity [25]: inactive | Activity [26]: Active | Activity [27]: inactive | Activity [28]: inactive
